Experimental data from patent US10537626B2, “HSP70-derived peptide, pharmaceutical composition for treating or preventing cancer using same, immunity inducer, and method for producing antigen presenting cell” (Cytlimic Inc., priority 2014, dated 2020).
Ends that are not written are not given here.

Assays:
HLA-A*24:02 molecule = HLA-A*24:02 molecule (Homo sapiens, UniProt P04439, D101N/D140Y/D185E/E176V/E190D/F33S/G103R/G107R/I119L/I121M/I306V/K335N/L105A/L180Q/L300P/N151K/N90K/Q86E/Q94H/R106L/R138H/R89G/T104I/T345S/V100E/W191G/Y123F); assay: Binding experiment of peptide to HLA-A*24:02 molecule (C1R-A24 cells, flow cytometry); conditions: for Binding Experiment Data To A*24:02: C1R-A24 cells, on ice 4 hours, negative values as printed (apparently log Kd)
Method: The binding capacity of each peptide to the HLA-A*24:02 molecule as the product of HLA-A*24:02 gene was measured using C1R-A24 cells expressing the HLA-A*24:02 molecule (the cells prepared by Prof. Masafumi Takeguchi, Kumamoto University were gifted by Assoc. Prof. Masaki Yasukawa, Ehime University with permission).
First, C1R-A24 cells were exposed to acidic conditions of pH 3.3 for 30 seconds to dissociate and remove endogenous peptides which were originally bound to the HLA-A*24:02 molecule and a light chain, β2m, which was commonly associated with HLA class I molecules. After neutralization, purified β2m was added to the C1R-A24 cells, which was then added to peptide dilution series. The mixtures were each then incubated on ice for 4 hours. The 3-molecule assembly (MHC-pep) consisting of the HLA-A*24:02 molecule, the peptide, and β2 m which had been reassociated during the incubation was stained with a fluorescent labeled monoclonal antibody, 17A12, recognizing the assembly.
Subsequently, the number of MHC-pep's per C1R-A24 cell (which is proportional to the fluorescent intensity of the above fluorescent antibody) was quantitatively measured using a fluorescent cell analyzer, FACScan (Becton, Dickinson and Company). The binding dissociation constant, Kd value, between the HLA-A*24:02 molecule and the peptide was calculated from the average fluorescent intensity per cell using a method as published in a paper (Udaka et al., Immunogenetics, 51, 816-828, 2000) by the present inventor.

HLA-A*02:01 molecule = HLA-A*02:01 molecule (Homo sapiens, UniProt P04439, D140Y/D185E/D98H/E176V/E277Q/G131W/G231S/I119V/I121R/I166T/I218V/L300P/L318F/N151K/N90K/P208A/P217A/Q86G/Q94H/R138H/R169H/T345S); assay: Binding experiment of peptide to HLA-A*02:01 molecule (T2 cells, flow cytometry); conditions: for Binding Experiment Data To A*02:01: T2 cells, 37° C. 4 hours, negative values as printed (apparently log Kd)
Method: T2 cells and purified β2m were added to stepwise dilution series of a peptide whose binding capacity was to be measured, which was then incubated at 37° C. for 4 hours.
Thereafter, the amount of fluorescence per cell was measured using a flow cytometer, and the dissociation constant, Kd value, was calculated using a method as published in a paper by the present inventor (Udaka et al., Immunogenetics, 51, 816-828, 2000).

HLA-A*02:06 molecule = molecular target: T1, HLA-A*02:06 molecule (Homo sapiens, UniProt P04439, D140Y/D185E/D98H/E176V/E277Q/F33Y/G131W/G231S/I119V/I121R/I166T/I218V/L300P/L318F/N151K/N90K/P208A/P217A/Q86G/Q94H/R138H/R169H/T345S); assay: Binding experiment of peptide to HLA-A*02:06 molecule (RA2.6 cells, flow cytometry); conditions: for Binding Experiment Data To A*02:06: RA2.6 cells, negative values as printed (apparently log Kd)
T1 construct: expressed in transfected cells; host or cells: RA2.6 cells (mouse TAP-deficient RMAS transfected with HLA-A*02:06 cDNA, Kochi University)
Method: The binding capacity of each peptide to the HLA-A*02:06 molecule as the product of HLA-A*02:06 gene was measured using RA2.6 cells (a cell line newly prepared at Kochi University) in which cDNA of the HLA-A*02:06 gene was introduced into RMAS as a mouse TAP (transporter associated with antigen processing)-deficient cell line.
First, the RA2.6 cells were cultured overnight at 26° C. to accumulate the HLA-A*02:06 molecules unbound to the peptide on the cell surface. Any of peptide dilution series was added thereto for binding at 26° C. for 60 minutes.
Subsequently, the mixture was cultured at 35° C. for 4 hours, resulting in the denaturation of the empty HLA-A*02:06 molecule unbound to the peptide and the loss of its steric structure. A fluorescent labeled monoclonal antibody, BB7.2, specifically recognizing a peptide-bound HLA-A*02:06 molecule, was added thereto, which was then incubated on ice for 20 minutes to stain the cells.

[1] = tested on: CD8T cells from liver cancer patients; assay: Immunity induction test of peptide (IFN-γ ELISPOT / ELISA, peptide-stimulated dendritic cells cocultured with CD8T cells); assay type: cell-based, human
Method: Monocytes were separated from the peripheral blood collected from a hepatocellular cancer patient according to a leukapheresis method. The separated monocytes were cultured for 6 days under addition of 800 U/ml GM-CSF and 500 U/ml IL-4. In addition, 300 U/ml TNF-α was added to the culture solution, which was then cultured for 4 days to induce mature dendritic cells. Subsequently, HSP70 mRNA was introduced thereinto by an electroporation method and thereby dendritic cells having presented an HSP70-derived antigen peptide were prepared.
Dendritic cells into which 1×10^7, 2×10^7, or 3×10^7 HSP70 mRNAs were introduced (HSP70-dendritic cells) were administered into the thigh of the hepatocellular cancer patient by subcutaneous injection (HSP70 dendritic cell therapy). The subcutaneous administration of the HSP70-dendritic cells prepared by the same method was repeated every 3 weeks. […]
Using CD8 Negative Selection Kit (from Miltenyi Biotec), CD8T cells were separated from the medium and counted. […]
A culture supernatant at day 7 after coculture of T cells with dendritic cells pulsed with each of the above peptides was diluted to the 4 levels of ×1, ×5, ×25, and ×125 to identify the dilution level falling within the limit of measurement using Human IFN-γ ELISA MAX Deluxe Set (from BioLegend Inc.). Thereafter, each sample was measured 3 times at the identified dilution level. […]

FYPEEISSM [SEQ ID NO: 3] was tested, and the “Binding Experiment Data To A*24:02” value (HLA-A*24:02 molecule) was −7.664.

For YGAAVQAAI [SEQ ID NO: 7], the “binding to HLA-A*24:02 molecule (in words)” value (HLA-A*24:02 molecule) was “strongly binds”, the “Binding Experiment Data To A*24:02” value (HLA-A*24:02 molecule) was −5.502 and the “binding to HLA-A*02:01 molecule (in words)” value (HLA-A*02:01 molecule) was “strongly binds”. For the same sequence, the “Binding Experiment Data To A*02:01” value (HLA-A*02:01 molecule) was −4.904, the “binding to HLA-A*02:06 molecule (in words)” value (HLA-A*02:06 molecule) was “strongly binds” and the “Binding Experiment Data To A*02:06” value (HLA-A*02:06 molecule) was −5.372. The “immunogenicity (in words)” value [1] was “high immunogenicity”.

With LLLDVAPLS [SEQ ID NO: 8] the “Binding Experiment Data To A*02:01” value (HLA-A*02:01 molecule) was −6.06 and the “Binding Experiment Data To A*02:06” value (HLA-A*02:06 molecule) was −6.171.

KLLQDFFNG [SEQ ID NO: 4] was tested, and the “Binding Experiment Data To A*02:01” value (HLA-A*02:01 molecule) was −4.959 and the “Binding Experiment Data To A*02:06” value (HLA-A*02:06 molecule) was −5.268.

With VLVGGSTRI [SEQ ID NO: 5] the “Binding Experiment Data To A*24:02” value (HLA-A*24:02 molecule) was −6.173, the “Binding Experiment Data To A*02:01” value (HLA-A*02:01 molecule) was −4.86 and the “Binding Experiment Data To A*02:06” value (HLA-A*02:06 molecule) was −5.07.

With AMTKDNNLL [SEQ ID NO: 9] the “Binding Experiment Data To A*24:02” value (HLA-A*24:02 molecule) was −5.492, the “Binding Experiment Data To A*02:01” value (HLA-A*02:01 molecule) was −5.56 and the “Binding Experiment Data To A*02:06” value (HLA-A*02:06 molecule) was −4.276.

SVTNAVITV [SEQ ID NO: 15] was tested, and the “Binding Experiment Data To A*24:02” value (HLA-A*24:02 molecule) was −4.37, the “Binding Experiment Data To A*02:01” value (HLA-A*02:01 molecule) was −4.762 and the “Binding Experiment Data To A*02:06” value (HLA-A*02:06 molecule) was −5.594.

With AQIHDLVLV [SEQ ID NO: 12] the “Binding Experiment Data To A*02:01” value (HLA-A*02:01 molecule) was −6.148.

In the case of NLLGRFELS [SEQ ID NO: 11], the “Binding Experiment Data To A*02:01” value (HLA-A*02:01 molecule) is reported as −4.56 and the “Binding Experiment Data To A*02:06” value (HLA-A*02:06 molecule) is reported as −5.175.

With NQPGVLIQV [SEQ ID NO: 14] the “Binding Experiment Data To A*02:01” value (HLA-A*02:01 molecule) was −5.91 and the “Binding Experiment Data To A*02:06” value (HLA-A*02:06 molecule) was −6.417.

With YAFNMKSAV [SEQ ID NO: 13] the “Binding Experiment Data To A*02:01” value (HLA-A*02:01 molecule) was −5.091 and the “Binding Experiment Data To A*02:06” value (HLA-A*02:06 molecule) was −5.021.

With ITRARFEEL [SEQ ID NO: 10] the “Binding Experiment Data To A*02:01” value (HLA-A*02:01 molecule) was −4.326 and the “Binding Experiment Data To A*02:06” value (HLA-A*02:06 molecule) was −5.58.

MVLTKMKEI [SEQ ID NO: 6] was tested, and the “Binding Experiment Data To A*02:01” value (HLA-A*02:01 molecule) was −4.586 and the “Binding Experiment Data To A*02:06” value (HLA-A*02:06 molecule) was −5.533.

For GVPQIEVTF [SEQ ID NO: 1], the “Binding Experiment Data To A*24:02” value (HLA-A*24:02 molecule) was −6.451 and the “Binding Experiment Data To A*02:06” value (HLA-A*02:06 molecule) was −5.13.
